Measurements published in publication PMC12606464, “Investigating NFE2L1 activators for targeted protein aggregate clearance: a follow-up study” (RSC Medicinal Chemistry, 2025).

Key:
[1] = tested on: chymotrypsin-like activity of the 26S proteasome; assay: Proteasome activity assay in SH-SY5Y cell lysates; assay type: cell-based, human; conditions: for Geometric mean, Treatment (Control = 1): SH-SY5Y, Figure S6
Procedure: Building on previous findings, we investigated how selected RUN compounds influence proteasomal function itself. Specifically, we examined the chymotrypsin-like activity of the 26S proteasome following a 16 hour treatment with 7.5 μM RUN compounds in the HEK293 cell line. […] In addition, two other cell lines, MCF7 and SH-SY5Y, were measured (see the SI, Fig. S6).
Figure S6: RUN compounds enhance chymotrypsin-like activity of the 26S proteasome in […]
Cells were treated with 5 µM RUN compounds for 16 hours, with DMSO (0.5%) as the vehicle control. Proteasome chymotrypsin-like activity was measured in cell lysates at 37 °C. Four independent experiments were conducted. Statistical analysis was performed using ratio paired t-tests corrected for multiple comparisons with the Holm-Šídák's method (α = 0.05). Detailed results of the analysis are shown in Supplementary Table S16. […]
2.7 Proteasome activity assay
The corresponding cell lines (HEK293, MCF7, or SH-SY5Y) were seeded into 6-well plates and allowed to adhere overnight under standard culture conditions. On the following day, HEK293 cells were treated with 7.5 µM RUN compounds, whereas MCF7 and SH-SY5Y cells were treated with 5 µM RUN compounds, for 16 hours each. After treatment, cells were harvested, resuspended in lysis buffer (50 mM HEPES, pH 7.5; 5 mM EDTA; 150 mM NaCl; 2 mM ATP; 1% Triton), and centrifuged at 15,000 rpm for 15 minutes at 4 °C. The resulting lysates (25 µg total protein) were incubated with 200 µM of the fluorogenic substrate Suc-Leu-Leu-Val-Tyr-AMC (Bachem, I1395) in assay buffer (50 mM Tris, pH 8.0; 10 mM MgCl₂; 1 mM ATP; 1 mM DTT) at 37 °C. Free AMC release was detected by measuring fluorescence at 360/460 nm. Results of RUN compounds were compared to the DMSO control using a ratio paired t-test corrected for multiple comparisons with the Holm-Šídák's method (α = 0.05) in GraphPad Prism (v 10.6.1).
2.8 XBP1-endoplasmic reticulum (ER) stress reporter assay […]
Two sets of comparisons: 1) […]
treatment with MG132 inhibitor or RUN compounds with DMSO control, 2) RUN compounds vs MG132, were done by two-way repeated-measures ANOVA with Geisser–Greenhouse correction, followed by Dunnett’s multiple comparisons test with individual variances in […]
HCT116 parental cells (WT) and two independent DDI2 knockout clones (KO 04 and KO 11), in which NFE2L1 activation is impaired, were transiently transfected with plasmids encoding either a non-aggregating EGFP-HttQ23 or an aggregation-prone EGFP-HttQ74 construct using Lipofectamine 2000 (Thermo Fisher Scientific) according to the manufacturer’s

[2] = tested on: ubiquitin-proteasome system; assay: Ub-G76V-GFP reporter degradation in U2OS cells; assay type: cell-based; conditions: U2OS cells, Fig. S3
From the text: We next examined whether the selected RUN compounds activate the NFE2L1 pathway in a stress-independent manner, while preserving normal ubiquitin-dependent proteasomal degradation. This distinction is crucial, as the therapeutic benefit of NFE2L1 activation lies in its ability to alleviate proteotoxic stress and target disease-related proteins for degradation without compromising normal proteostasis. To assess this, U2OS cells stably expressing the short-lived fluorescent reporter Ub-G76V-GFP were treated with various concentrations of RUN compounds. […] We also examined whether compound-induced activation of NFE2L1 could be attributed to the generation of reactive oxygen species (ROS). To test this, the 3×PSMA4-ARE-LUC reporter assay was performed in the presence or absence of the antioxidant N-acetyl-L-cysteine (NAC). A decrease in reporter activity upon NAC treatment would indicate pathway activation through oxidative stress.
RUN compound (5 µM) for 8 hours. Fluorescence intensity was normalized to cell viability (measured by the alamarBlue assay) and compared to vehicle control (DMSO). Unlike the […]
as means ± SD from three independent experiments (n = 3). Statistical analysis was performed using a multiple unpaired t-test with Welch’s correction, with adjustment for multiple comparisons by the Holm–Šídák method (α = 0.05). ****p<0.0001. Detailed results of the analysis are shown in Supplementary Table S14. […]
2.4 Monitoring protein degradation using UbG76V-GFP reporter cells
U2OS cells stably expressing the Ub-G76V-GFP reporter were seeded into 96-well plates at and cultured overnight under standard conditions. On the following day, cells were treated with the indicated test compounds or DMSO vehicle control for 8 hours. After treatment, GFP fluorescence intensity was measured, providing a readout of proteasome-dependent degradation of the Ub-G76V-GFP substrate. Cell viability was then assessed in the same wells using the alamarBlue assay according to the manufacturer’s protocol. Viability values were used for normalization of fluorescence data to account for differences in cell number. Accumulation of GFP signal relative to DMSO-treated controls was interpreted as reduced degradation of UPS substrates, indicating potential effects of the compounds on the natural protein turnover.
Statistical comparison of RUN compounds with ASC-JM17 was performed using a multiple unpaired t-test with Welch’s correction, with adjustment for multiple comparisons by the Holm–Šídák method (α = 0.05) in GraphPad Prism (v 10.6.1). […]
RNA was extracted using […]
the RNeasy® Plus Micro Kit according to the manufacturer’s instructions. Complementary DNA (cDNA) was synthesized from RNA using either t he TATAA GrandScript cDNA Supermix (TATAA Biocenter) or the QuantiTect® Reverse Transcription Kit (Qiagen), following the respective protocols. Quantitative RT -PCR was performed on a LightCycler® 480 instrument (Roche Life Science) using the TATAA SYBR® Gr andMaster® Mix (TATAA […]
Biocenter). Gene expression levels were normalized to RPLP0, and relative expression was calculated using the ΔΔCt method. Data were expressed as fold change relative to the corresponding DMSO control. Statistical analysis of changes in gene expression was performed w ith a ratio paired t-test corrected for multiple comparisons using Holm-Šídák's method (α = 0.05) in GraphPad Prism (v 10.6.1).
Table S1. Sequences of primer pairs used in the qRT -PCR analysis of gene expression.

SMILES | Geometric mean, Treatment (Control = 1) [1] | Ub-G76V-GFP reporter assay, mean [2] | Proteasome chymotrypsin-like activity in SH-SY5Y cells ([1]; 5 μM, 16 h)
COc1ccc(/C=C2\CC(N)C/C(=C\c3ccc(OC)c(OC)c3)C2=O)cc1OC (stereo not shown) [RUN-81] | 1.28 | 1.14 | –
COc1ccc(/C=C2\CC(NC(=O)C3CCCC3)C/C(=C\c3ccc(OC)c(OC)c3)C2=O)cc1OC (stereo not shown) [RUN-89] | 1.88 | 1.17 | higher median for RUN-89 without reaching statistical significance
COc1ccc(/C=C2\CC(NC(=O)c3ccccn3)C/C(=C\c3ccc(OC)c(OC)c3)C2=O)cc1OC (stereo not shown) [RUN-94] | 1.50 | 1.19 | –
